Molecules are shown by their SMILES.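 Growth conditions: 96-well plates. Treatment: test compound, 48 hours, 5 concentrations. Analysis: linear interpolation between bracketing concentrations; unreached endpoints set to highest concentration. Here, GI50 denotes the concentration required for 50% inhibition of growth. TGI is the concentration that stops growth completely.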

Common to all, as to test: inhibition of tumour cell growth, NCI panel, 48 h
Assay [1] concerns DU-145 prostate.
For assay [2], the system named is MOLT-4 leukemia.
Assay [3] relates to MDA-MB-435.
The subject of assay [4] is HCT-116 colon.
Assay [5] deals with NCI-H460 lung.
Assay [6] deals with UO-31 renal.
For assay [7], the system named is SK-MEL-2 melanoma.
The subject of assay [8] is HL-60(TB) leukemia.
Assay [9] deals with SN12C renal.
Assay [10] concerns SNB-19 CNS.

Take `O=C1/C(=C\c2coc3ccccc3c2=O)c2ccccc2N1c1c(Cl)cccc1Cl`: the GI50 is 4.71 µM in [1]; 2980 nM in [2]; 2.7 µM in [3]; 2010 nM in assay [4]; 2050 nM in assay [5]; 1.8 µM in assay [6]. Also, the GI50 in assay [7] was 2.75 µM; in assay [8], 2.08 µM; in [9], 3.35 µM. Moreover, the TGI in assay [1] is greater than 100 µM; in assay [2], greater than 100 µM; in assay [3], 9.69 µM; in assay [4], 14.5 µM; in assay [5], 16.3 µM; in assay [6] it was 11.9 µM. For the same compound, the TGI was 6.04 µM in assay [7], 87.6 µM in [8] and greater than 100 µM in [9].

Take `COc1ccc(C2=C(c3cc(OC)c(OC)c(OC)c3)C(=O)CC2)cc1`: the GI50 in assay [1] is 0.294 µM; in assay [2], 405 nM; in [3], 0.0291 µM; in [4], 156 nM; in assay [5], 224 nM; in assay [10], 0.41 µM. Moreover, the GI50 is 3.75 µM in assay [6], 0.971 µM in [7], 0.11 µM in assay [8] and 0.676 µM in [9]. Also, the TGI in assay [2] was greater than 100 µM; in [3] it was 0.12 µM; in [4] it was greater than 100 µM; in [10] it was greater than 100 µM; in assay [6], greater than 100 µM; in assay [8], 1.21 µM. For the same compound, the TGI in [9] is greater than 100 µM.

For `Cc1ccccc1N=Nc1c(O)[nH]c2ccccc12`, the TGI in assay [1], in [2], in assay [3], in assay [4], in assay [5] and in assay [10] was greater than 100 µM each time. The TGI in assay [6], in assay [7], in assay [8] and in [9] was greater than 100 µM in each case.

For `CCCN(CCC)CCCNC(=O)c1cc2c(-c3ccc(OC)c(OC)c3)nn(C)c2s1`, the GI50 in assay [1] is 39.1 µM; in [2] it was 17600 nM; in assay [3] it was 14.1 µM; in assay [4], 17700 nM; in assay [5], 32600 nM; in assay [10], 34.2 µM. Besides, the GI50 in [6] is 13.6 µM; in assay [7], 25.2 µM; in [8], 20.7 µM; in [9], 54.9 µM. In addition, the TGI in assay [1] was greater than 100 µM; in assay [2], 59.5 µM; in assay [3], 31.8 µM; in assay [4], 55.3 µM; in [5], greater than 100 µM; in [10], greater than 100 µM. The TGI in assay [6] was 47 µM; in assay [7], 72.9 µM; in [8], 46.2 µM; in assay [9] it was greater than 100 µM.

`N#Cc1cccc(NC(=O)c2oc3ccccc3c2-c2cnn(-c3ccccc3)c2)c1`: the GI50 in assay [1] is greater than 500 µM; in assay [3], greater than 500 µM; in assay [4] it was greater than 500000 nM; in [5] it was greater than 500000 nM; in [10] it was 192 µM; in [6], 41.2 µM. For the same compound, the GI50 in assay [7], in [8] and in assay [9] was greater than 500 µM each time. The TGI in assay [1], in [3], in assay [4], in [5], in [10] and in [6] was greater than 500 µM each time. Moreover, the TGI in assay [7], in assay [8] and in assay [9] was greater than 500 µM each time.

Take `C#COc1cccc(Nc2ncnc3ncc(NC(=O)CCl)cc23)c1`: the GI50 in assay [1] was greater than 26.4 µM; in assay [3], greater than 49.8 µM; in assay [4] it was 239 nM; in [10] it was greater than 43.3 µM; in assay [6], greater than 14 µM; in assay [7], greater than 57.7 µM. Further, the GI50 in assay [8] was greater than 21.2 µM. Moreover, the TGI in assay [1], in assay [2], in [3], in [4], in [5] and in assay [10] was greater than 62.5 µM in each case. The TGI in [6] was greater than 33.2 µM; in assay [7] it was greater than 62.5 µM; in assay [8], greater than 45 µM; in assay [9] it was greater than 62.5 µM.

Consider `Clc1ccc(-c2nn3ncccc3c2-c2ccnc(Nc3ccccc3)n2)cc1`, for which the GI50 is 11 µM in assay [1]; 5770 nM in assay [2]; 10.1 µM in [3]; 7020 nM in [4]; 6340 nM in assay [5]; greater than 14.4 µM in assay [10]. For the same compound, the GI50 is 1.35 µM in [6], 24.4 µM in assay [7], 11.3 µM in assay [8] and 8.29 µM in assay [9]. In addition, the TGI in assay [1], in assay [2], in [3], in assay [4], in assay [5] and in [10] was greater than 25 µM in each case. Also, the TGI in assay [6] is greater than 16.1 µM; in [7] it was greater than 25 µM; in assay [8], greater than 25 µM; in [9], greater than 25 µM.

For the compound `COc1cccc(C2C3=C(COC3=O)N(CCO)c3cc4c(cc32)OCCO4)c1` (configuration not stated), the GI50 in [1] is 0.157 µM; in [2], 195 nM; in assay [3], 0.0179 µM; in assay [4], 152 nM; in assay [5], 148 nM; in [6] it was 0.268 µM. In addition, the GI50 in [7] was 0.0396 µM; in [8], 0.111 µM. Moreover, the TGI in [1] is 0.65 µM; in assay [3], 0.0767 µM; in [4], 3.16 µM; in [5] it was 1.19 µM; in [10], greater than 15.8 µM; in [6] it was greater than 15.6 µM. The TGI in assay [7] was 0.219 µM; in assay [8], 0.422 µM; in assay [9] it was greater than 50 µM.
